{"source": "patent US8871227B2", "about": "“Process and formulation containing epothilones and analogs thereof” (Bristol-Myers Squibb Company, priority 2003, dated 2014)", "format_in_all_cases": "physicochemical", "key": {"[1]": {"assay": "Stability of aqueous solution: time for 5% drug loss (t95)", "details": "25°", "protocol": "The compounds represented by formulae I and II present challenges from the viewpoint of pharmaceutical compounding for administration to patients for a number of reasons. […] Of particular concern with the present invention, compounds of formulae I and II can degrade when exposed to low pH, e.g., certain compounds of formula I presumably are susceptible to acids catalyzed hydrolysis. For example, the time for 5% drug loss (t95) at 25° for an aqueous solution of compound II is approximately 2 h at pH 7, but less than 0.2 h at pH 2.5."}, "pH of maximum stability": {"assay": "pH of maximum stability", "source_text": "The term, “pH of maximum stability,” or “maximum stability pH” means the pH at which a compound (or mixture of compounds) is least likely to degrade, or at which the compound (or mixtures of compounds) will degrade most slowly. Each compound or mixture of compounds will have a pH of maximum stability. However, the pH of maximum stability also may encompass a range of pH's. […] In this case, the pH of maximum stability is 7.1±1.\nFor example, in the embodiment involving use of the epothilone analog of formula II, the pH of maximum stability is about 7.0. A preferred dose of this epothilone analog when diluted in the infusion fluid is approximately in the range of about 0.05 to about 1.0 mg/mL, more preferably in the range of about 0.1 to about 0.8 mg/mL, and most preferably in the range of about 0.2 to about 0.6 mg/mL. The inventors herein have determined that for this epothilone analog and preferred dose, an advantageous buffer is sodium lactate, and a preferred concentration of this buffer in the formulation for administration is in the range of about 3 to about 30 mg/mL, more preferably in the range of about 10 to about 20 mg/mL, even more preferably at a concentration of about 15 mg/mL. […]"}, "[2]": {"assay": "Degradation during dissolution and lyophilization", "details": "tertiary butanol/water 1:1, lyophilized at −30° C. about 100 hours, dried at 25° C. about 35 hours, light protected", "protocol": "[1S-[1R*,3R*(E),7R*,10S*,11R*,12R*,16S*]]-7,11-Dihydroxy-8,8,10,12,16-pentamethyl-3-[1-methyl-2-(2-methyl-4-thiazolyl)ethenyl]-4-aza-17-oxabicyclo[14.0]heptadecane-5,9-dione, 4.04 g, was wetted/partially dissolved with 500 mL of a 4:1 mixture of tertiary butanol and Water for Injection USP which had been pre-cooled to 5° C. Once the drug powder had become completely wetted, dissolution was completed by the addition of […] Water for Injection, thereby making the final solution a 1:1 mixture. The dissolution was carried out under protection from light.\nThe solution formed above was promptly lyophilized in a Virtis GENESIS lyophilizer at −30° C. under light protected conditions over a period of about 100 hours. The resultant lyophilized product (lyophile) was then further dried at 25° C. under high vacuum for about 35 hours. […] The lyophile was packaged under sterile conditions into 15 mL vials, each containing 20 mg of drug and standard excess to allow for vial/needle/syringe loss."}, "[3]": {"assay": "Infusion stability: loss of potency over six hour hold time after dilution in infusion fluid", "details": "for loss of potency (degradation of active compound) / loss of potency (degradation in active compound): 0.2 mg/mL; for loss of potency (degradation of active compound): with buffer and base; for loss of potency (degradation in active compound): without buffer and base", "protocol": "To illustrate the surprising advantages of the invention, a formulation including the compound of formula II was diluted in a 0.9% Sodium Chloride Injection infusion fluid to a concentration of 0.2 mg/mL, without buffer and base. […] As a further illustration, a formulation including the compound of formula II was diluted in a 5% dextrose injection fluid to a concentration of 0.2 mg/mL, without buffer and base."}}, "data": [{"smiles": "C/C(=C\\c1csc(C)n1)C1CC2O[C@]2(C)CCC[C@H](C)[C@H](O)[C@@H](C)C(=O)C(C)(C)[C@@H](O)CC(=O)N1", "note": "(relative stereo) [II, [1S-[1R*,3R*(E),7R*,10S*,11R*,12R*,16S*]]7,11-Dihydroxy-8,8,10,12,16-pentamethyl-3-[1-methyl-2-(2-methyl-4-thiazolyl)ethenyl]-4-aza-7oxabicyclo[14.1.0]heptadecane-5,9-dione]", "values": [{"measurement": "time for 5% drug loss (t95)", "setting": "[1]; pH 2.5", "result": "less than 0.2 h"}, {"measurement": "time for 5% drug loss (t95)", "setting": "[1]; pH 7", "result": "approximately 2 h"}, {"measurement": "pH of maximum stability", "setting": "pH of maximum stability", "result": "about 7.0"}, {"measurement": "degradation of the drug during dissolution, lyophilization and drying", "setting": "[2]", "result": "No detectable degradation"}, {"measurement": "loss of potency (degradation of active compound)", "setting": "[3]; 0.9% Sodium Chloride Injection", "result": "about 3.6%"}, {"measurement": "loss of potency (degradation in active compound)", "setting": "[3]; 0.9% Sodium Chloride Injection", "result": "about 6%"}, {"measurement": "enhancement in stability", "setting": "[3]; 0.9% Sodium Chloride Injection, with vs without buffer and base", "result": "approximately 40%"}, {"measurement": "loss of potency (degradation of active compound)", "setting": "[3]; 5% dextrose injection fluid", "result": "about 4%"}, {"measurement": "loss of potency (degradation in active compound)", "setting": "[3]; 5% dextrose injection fluid", "result": "about 13%"}, {"measurement": "enhancement of stability", "setting": "[3]; 5% dextrose injection fluid, with vs without buffer and base", "result": "greater than 65%"}]}]}
